This is an account of results in patent US20110319338A1, “PEPTIDES THAT BIND EUKARYOTIC TRANSLATION INITIATION FACTOR 4E” (The Board of Regents of the University of Texas System, priority 2008, published 2011).

“Also recorded” adds a separate entry of the source. Square brackets hold non-standard residues; d marks the D form. Peptide text beside a SMILES is read from it. pGlu = O=C1CC[C@@H](C(=O)O)N1

A short description of data set [1]: Peptide stability in serum and in culture medium (Western blot, MALDI TOF). The following applies: human, serum (undiluted, of an ovarian cancer patient), 37° C. It is filed as in vitro ADME. As for the experimental part:
FIGS. 6A-6B. Stability of [DLys6]GnRH-4EBP1 peptide. Biotinylated peptide was added to McCoys' 5A medium containing 10% fetal bovine serum (FBS), and to human serum. Samples were immediately withdrawn (0 hours). The remaining mixtures were incubated at 37° C., and samples taken thereafter at 1, 3, 6, 12 and 24 hours. In (FIG. 6A), samples were analyzed by Western blot using horseradish peroxidase-conjugated strepatavidin. In (FIG. 6B), samples of peptide incubated in serum for 0, 12 and 24 hours were analyzed by Matrix Assisted Laser Desorption Ionization-Time of Flight (MALDI TOF) mass spectrometry. Peaks corresponding to intact peptide (mass: 3990) are indicated. Peaks of 1256, 1684 and 3384 in mass are likely to represent degradation products of the peptide.
Peptide stability studies. Biotinylated peptide (7 micrograms) was mixed with McCoys' 5A medium containing 10% FBS in a final volume of 140 microliters. A sample of 20 microliters was immediately removed and frozen. The remaining mixture was incubated at 37° C., and 20 microliters samples taken thereafter at 1, 3, 6, 12 and 24 hours. […] Samples were analyzed by Western blot using horseradish peroxidase-conjugated strepatavidin, and by MALDI TOF mass spectrometry using an Applied Biosystems 4700 Proteomic Analyzer.
A general note: A western blot detects proteins with antibodies after separation by electrophoresis.

The next data set has as its system ES-2-GFP cells. Briefly: Mouse i.p. xenograft model of epithelial ovarian cancer. The following applies: for Deaths (died before completing treatment regimen) / Drop-outs (euthanized prior to completion due to morbidity related to ascites accumulation): of 11 mice per group. It is filed as in vivo. As for the experimental part:
FIGS. 4A-4C. Anti-tumor activity of [DLys6]GnRH-4EBP1-WT peptide in a xenograft model of EOC. Female nude mice were inoculated i.p. with one million ES-2-GFP cells. At Day 9 after tumor cell inoculation, one group of mice (n=5) was sacrificed (pre-treatment). At Day 9, other groups of mice were administered by i.p. injection with saline (n=11), [DLys6]GnRH (n=11) or [DLys6]GnRH-4EBP1-WT (n=11) at a dose of 3.0 nanomoles per gram body weight Saline or peptide was administered every 2 days thereafter for 11 days (6 doses in total), and mice were sacrificed on Day 20. (FIG. 4A) Visualization under a fluorescence stereoscope of i.p. tumors in pre-treatment mice (at Day 9) including implants on the omentum (ome), and in mice treated with saline, with agonist alone and with [DLys6]GnRH-4EBP1-WT (at Day 20). (FIG. 4B) Hematoxylin eosin-stained sections of tissues of pre-treatment mice (at Day 9) and of saline- and peptide-treated mice (at Day 20). Tumors attached to the omentum extensively involved the pancreas in saline- and agonist-treated mice. Also shown are tumors attached to the broad ligament and mesentery. Bar, 200 micrometers. (FIG. 4C) Quantification of i.p. tumor burden in pre-treatment and treated mice that completed the regimen, expressed as the average percent of area of fluorescence within the abdominal cavity in captured images, and volume of ascites. Median values of tumor burden and ascites volume for each group and statistical significance of differences between groups are indicated.
(§1) Animal Studies. Animal studies were approved by the Institutional Animal Care and Use Committee. The ES-2 cell line stably expressing enhanced green fluorescent protein (ES-2-GFP) has been described in previous work (Hara et al., 2007). Four-week-old female nude mice were inoculated i.p. at one site in the lower abdomen with 10^6 ES-2-GFP cells. At Day 9 after tumor cell inoculation, one group of mice (n=5) were killed by CO2 asphyxiation. At Day 9, other groups of mice were administered by i.p. injection with 200 microliters of phosphate-buffered saline (PBS) (n=11), [DLys6]GnRH (n=11) or [DLys6]GnRH-4EBP1-WT peptide (n=11) at a dose of 3.0 nanomoles per gram body weight. Peptides were suspended in PBS and administered at a volume of 200 microliters. PBS or peptide was administered every 2 days thereafter for 11 days (6 doses in total). Mice were sacrificed on Day 20, and ascites harvested. Tumors were visualized under a Leica MZML III fluorescence stereomicroscope equipped with mercury lamp power supply and green fluorescent protein (GFP) filter set. Tumor burden was quantified by measuring areas of fluorescence signals within the abdominal cavity in captured images by using Image Pro Plus 5.0 software (Media Cybernetics, Bethesda, Md.). Slides of paraffin-embedded tissues collected from mice were stained with hematoxylin-eosin. TUNEL-staining of tissue sections was performed using the in situ cell death detection kit (Roche).
To determine the efficacy of [DLys6]GnRH-4EBP1-WT peptide in vivo, a mouse i.p. xenograft model was used that was established from an ES-2 cell line stably expressing GFP (Hara et al., 2007). This model mimics the typical behavior of epithelial ovarian cancer, including i.p. dissemination and ascites formation. This example comprised three treatment groups of mice i) saline, ii) [DLys6]GnRH agonist, and iii) [DLys6]GnRH-4EBP1-WT, where sample size of each group was n=11. The first dose of peptide or saline was administered i.p. to mice at Day 9 after tumor cell inoculation. At Day 9, no ascites had yet formed but tumors had established on the omentum, broad ligament and mesentery which are common sites of ovarian cancer cell attachment (FIGS. 4A,B). A schedule in which peptide was administered every 2 days was chosen, based on the studies of peptide stability in serum (FIG. 6).
Based on studies of other agonist conjugates in xenograft models (19-21), a peptide dose of 3.0 nanomoles per gram body weight was used. […]

The nature of data set [2]: Tolerability in xenograft mice: observation, histology and TUNEL-staining of tissues. It is filed as in vivo.
Source text: FIGS. 11A-11B. TUNEL-staining of tissues of saline- and peptide-treated mice. […] Shown are normal tissues of the brain, heart, lung, liver, breast, pancreas and ovary, and tumor implants on the omentum. Bar, 60 micrometers. Pancreatic and ovarian sections show normal pancreatic (P) and ovarian (O) tissues plus adjacent tumor (T). Also shown are normal tissues of the pituitary and bone marrow. Bar, 20 micrometers
as §1

The nature of data set [3]: Mouse serum antibody assays. The settings on record: serum 1:100 dilution. The data set is classed as in vivo, mice. As for the experimental part: FIGS. 12A-12C. Serum luteinizing hormone (LH) levels and serum antibody reactivity.
Mouse serum antibody assays. Wells in 96-well plates were coated with 50 nanograms of [DLys6]GnRH-4EBP1-WT peptide or with 100 nanograms of ES-2 cell lysate. Serum of saline- and peptide-treated mice (1:100 dilution) was incubated in wells for 2 hours at room temperature. Bound IgG was detected using horseradish peroxidase-conjugated goat anti-mouse IgG, and measured at an optimal density of 450 nm.

Another data set concerns luteinizing hormone (LH). The data set can be described thus: Assay of serum LH levels by radioimmunoassay. The settings on record: serum collected at end of regimen (Day 20).

Source text for luteinizing hormone (LH): Assay of serum LH levels.

For orientation: half-life means how long it takes for the measured level to halve. In data set [1], `CC[C@H](C)[C@H](NC(=O)[C@H](CCCNC(=N)N)NC(=O)[C@@H](NC(=O)CNC(=O)CNC(=O)[C@@H]1CCCN1C(=O)[C@H](CCCNC(=N)N)NC(=O)[C@H](CC(C)C)NC(=O)[C@@H](CCCCN)NC(=O)[C@H](Cc1ccc(O)cc1)NC(=O)[C@H](CO)NC(=O)[C@H](Cc1c[nH]c2ccccc12)NC(=O)[C@H](Cc1c[nH]cn1)NC(=O)[C@@H]1CCC(=O)N1)[C@@H](C)O)C(=O)N[C@H](C(=O)N[C@@H](Cc1ccc(O)cc1)C(=O)N[C@@H](CC(=O)O)C(=O)N[C@@H](CCCNC(=N)N)C(=O)N[C@@H](CCCCN)C(=O)N[C@@H](Cc1ccccc1)C(=O)N[C@@H](CC(C)C)C(=O)N[C@@H](CCSC)C(=O)N[C@@H](CCC(=O)O)C(=O)N[C@@H](CS)C(=O)N[C@@H](CCCNC(=N)N)C(=O)N[C@@H](CC(N)=O)C(=O)N[C@@H](CO)C(=O)N1CCC[C@H]1C(=O)N[C@H](C(=O)N[C@H](C(=O)O)[C@@H](C)O)C(C)C)[C@@H](C)CC` [[DLys6]GnRH-4EBP1-WT] ([pGlu]HWSY[dK]LRPGGTRIIYDRKFLMECRNSPVT-OH) displayed a half-life of 5 to 6 h. Besides, in the data set on ES-2-GFP cells (drop-out mice, individual animals), the “Mice euthanized, day” value is reported as “n = 1, day 15; also recorded: n = 1, day 17”. The “day of death before completing treatment regimen” value in the data set on ES-2-GFP cells (mouse, in vivo) was found to be 19 days. Besides, in the data set with ES-2-GFP cells, the “Deaths (died before completing treatment regimen)” value is recorded as 1 and the “Drop-outs (euthanized prior to completion due to morbidity related to ascites accumulation)” value came to 2. For the same compound, in the data set with ES-2-GFP cells (listed as [DLys6]GnRH-4EBP-WT), the “Deaths (died before completing treatment regimen)” value is “one” and the “Drop-outs (euthanized prior to completion due to morbidity related to ascites accumulation)” value is on record as “two”. Further, in data set [2] (Day 20), the “TUNEL-positive cells in other normal tissues (brain, heart, lung and bone marrow)” value is “not detected”; the TUNEL-staining in ovaries result was “some staining was observed”; the “TUNEL-staining of cells of the liver and pancreas” value was “TUNEL-negative”. In data set [2] (Day 20, tissues that express GnRH-RI), the “TUNEL-staining in breast and pituitary tissues” value was “No TUNEL-staining was detected”. Also, the “mice with antibody reactivity to [DLys6]GnRH-4EBP1-WT at least two standard deviations above mean background in saline-treated mice” value in data set [3] is 2 of 8. In the data set on luteinizing hormone (LH), the “serum LH levels compared with saline-treated mice” value is given as “not significantly different”.
